Assays:
Assay in all cases: relative viability (nuclei count vs DMSO), 5 days (fraction); higher = more cells survive
Apatinib + Trametinib = compound: N#CC1(c2ccc(NC(=O)c3cccnc3NCc3ccncc3)cc2)CCCC1 [Apatinib] + CC(=O)Nc1cccc(-n2c(=O)n(C3CC3)c(=O)c3c(Nc4ccc(I)cc4F)n(C)c(=O)c(C)c32)c1 [Trametinib] (partner 0.02 µM)
Outline: (§1)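 Lung cancer cell lines, seeded in 1536-well plates, were treated the following day by pin tool with a single drug or with five library-drug doses (not always all listed) in √10 steps on top of a fixed anchor-drug dose. Cells were fixed and nuclei stained in one step after 5 days, and nuclei were counted. Relative viability is the nuclei count for treated wells divided by that for vehicle wells, reported as medians of duplicate plates.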

Apatinib + Pemetrexed = compound: N#CC1(c2ccc(NC(=O)c3cccnc3NCc3ccncc3)cc2)CCCC1 [Apatinib] + Nc1nc2[nH]cc(CCc3ccc(C(=O)N[C@@H](CCC(=O)O)C(=O)O)cc3)c2c(=O)[nH]1 [Pemetrexed] (partner 0.2 µM)
Outline: as §1

Apatinib + Foretinib = compound: N#CC1(c2ccc(NC(=O)c3cccnc3NCc3ccncc3)cc2)CCCC1 [Apatinib] + COc1cc2c(Oc3ccc(NC(=O)C4(C(=O)Nc5ccc(F)cc5)CC4)cc3F)ccnc2cc1OCCCN1CCOCC1 [Foretinib] (partner 0.25 µM)
Outline: as §1

Metformin + Pemetrexed = compound: CN(C)C(=N)NC(=N)N [Metformin] + Nc1nc2[nH]cc(CCc3ccc(C(=O)N[C@@H](CCC(=O)O)C(=O)O)cc3)c2c(=O)[nH]1 [Pemetrexed] (partner 0.2 µM)
Outline: as §1

Cell Line | relative viability (Apatinib + Trametinib; first compound 0.08 µM) | relative viability (Apatinib + Trametinib; first compound 0.253 µM) | relative viability (Apatinib + Trametinib; first compound 0.8 µM) | relative viability (Apatinib + Trametinib; first compound 2.53 µM) | relative viability (Apatinib + Trametinib; first compound 8 µM) | relative viability (Apatinib + Pemetrexed; first compound 0.08 µM) | relative viability (Apatinib + Pemetrexed; first compound 0.253 µM) | relative viability (Apatinib + Pemetrexed; first compound 0.8 µM) | relative viability (Apatinib + Pemetrexed; first compound 2.53 µM) | relative viability (Apatinib + Pemetrexed; first compound 8 µM) | relative viability (Apatinib + Foretinib; first compound 0.08 µM) | relative viability (Apatinib + Foretinib; first compound 0.253 µM) | relative viability (Apatinib + Foretinib; first compound 0.8 µM) | relative viability (Apatinib + Foretinib; first compound 2.53 µM) | relative viability (Apatinib + Foretinib; first compound 8 µM) | relative viability (Metformin + Pemetrexed; first compound 10 µM) | relative viability (Metformin + Pemetrexed; first compound 31.62 µM) | relative viability (Metformin + Pemetrexed; first compound 100 µM) | relative viability (Metformin + Pemetrexed; first compound 316.23 µM) | relative viability (Metformin + Pemetrexed; first compound 1000 µM)
NCI-H1975 | 0.352 | 0.3 | 0.417 | 0.424 | 0.36 | 0.296 | 0.299 | 0.271 | 0.282 | 0.203 | 1.13 | 0.907 | 0.84 | 0.862 | 0.783 | 0.277 | 0.296 | 0.317 | 0.269 | 0.289
NCI-H1734 | 0.689 | 0.712 | 0.682 | 0.664 | 0.618 | 0.452 | 0.456 | 0.429 | 0.403 | 0.255 | 0.932 | 0.833 | 0.839 | 0.732 | 0.676 | 0.49 | 0.418 | 0.461 | 0.456 | 0.455
LU99A | 0.58 | 0.552 | 0.543 | 0.486 | 0.29 | 0.189 | 0.198 | 0.183 | 0.174 | 0.212 | 0.88 | 0.891 | 0.769 | 0.78 | 0.682 | 0.152 | 0.212 | 0.157 | 0.168 | 0.164
LXF-289 | 0.667 | 0.705 | 0.638 | 0.608 | 0.56 | 0.916 | 0.908 | 0.818 | 0.692 | 0.886 | 0.915 | 1.02 | 0.984 | 0.954 | 0.905 | 0.74 | 0.83 | 0.756 | 0.806 | 0.784
UMC-11 | 0.816 | 0.686 | 0.631 | 0.668 | 0.647 | 0.783 | 0.771 | 0.716 | 0.663 | 0.433 | 1.04 | 1.09 | 0.935 | 0.939 | 1.03 | 0.907 | 0.697 | 0.81 | 0.791 | 0.855
NCI-H1650 | 0.607 | 0.659 | 0.395 | 0.515 | 0.482 | 0.386 | 0.347 | 0.325 | 0.37 | 0.378 | – | 1.07 | 0.959 | 0.923 | 0.81 | 0.398 | 0.428 | 0.388 | 0.404 | 0.301
LCLC-103H | 0.702 | 0.699 | 0.722 | 0.713 | 0.688 | 0.439 | 0.463 | 0.412 | 0.432 | 0.39 | 0.785 | 0.957 | 0.681 | 0.805 | 0.573 | 0.446 | 0.485 | 0.434 | 0.446 | 0.445
NCI-H2405 | 0.594 | 0.625 | 0.599 | 0.527 | 0.44 | 1.15 | 1.1 | 1.08 | 0.898 | 0.867 | 1.15 | 1.02 | 1.09 | 0.998 | 1.09 | – | 1.16 | 1.04 | 0.619 | 0.679

Source: the supplement of paper PMC10307832
